In PubChem BioAssay (NCI):
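1) Cells in 96-well plates. 2) Compound, 48 h, 5 concentrations. 3) Linear interpolation between surrounding doses. 4) Unreached endpoint = highest concentration. At the GI50, growth is halved. Definition used: TGI = concentration required for complete inhibition of growth.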

system: UACC-62 melanoma; test: NCI-60 cell line screen, 48 h

Structure (SMILES) | GI50 | TGI
Clc1cccc(Cc2cn3cc(-c4ccccc4)nc3s2)c1Cl | 1.83 µM | > 100 µM
O=C1/C(=C/c2ccc([N+](=O)[O-])cc2)COc2ccc(O)c(O)c21 | 1.57 µM | 3.35 µM
CN(C)c1ccc(-c2cc(-c3ccc(Nc4nc(Nc5ccc(Cl)cc5)nc(Nc5ccc(Cl)cc5)n4)cc3)no2)cc1 | 17.1 µM | 62.2 µM

system: UO-31 renal; test: NCI-60 cell line screen, 48 h

Structure (SMILES) | GI50 | TGI
Clc1cccc(Cc2cn3cc(-c4ccccc4)nc3s2)c1Cl | > 100 µM | > 100 µM
O=C1/C(=C/c2ccc([N+](=O)[O-])cc2)COc2ccc(O)c(O)c21 | 0.696 µM | 2.23 µM
CN(C)c1ccc(-c2cc(-c3ccc(Nc4nc(Nc5ccc(Cl)cc5)nc(Nc5ccc(Cl)cc5)n4)cc3)no2)cc1 | 2.69 µM | 17.7 µM
NC(N)=N/N=C/c1c(-c2ccc(Cl)c([N+](=O)[O-])c2)nc2sc(Cl)cn12 | – | 3.47 µM
COC(=O)c1ccc2[nH]c(O)c(C(=Nc3ccc(N(C)C(=O)CN4CCN(C)CC4)cc3)c3ccc(C)cc3)c2c1 | 0.353 µM | 1.47 µM

system: K-562 leukemia; test: NCI-60 cell line screen, 48 h

Structure (SMILES) | GI50 | TGI
Clc1cccc(Cc2cn3cc(-c4ccccc4)nc3s2)c1Cl | > 100 µM | > 100 µM
O=C1/C(=C/c2ccc([N+](=O)[O-])cc2)COc2ccc(O)c(O)c21 | 0.547 µM | > 100 µM
CN(C)c1ccc(-c2cc(-c3ccc(Nc4nc(Nc5ccc(Cl)cc5)nc(Nc5ccc(Cl)cc5)n4)cc3)no2)cc1 | 1.72 µM | 5.3 µM
NC(N)=N/N=C/c1c(-c2ccc(Cl)c([N+](=O)[O-])c2)nc2sc(Cl)cn12 | – | > 100 µM

system: SK-MEL-2 melanoma; test: NCI-60 cell line screen, 48 h

Structure (SMILES) | GI50 | TGI
Clc1cccc(Cc2cn3cc(-c4ccccc4)nc3s2)c1Cl | 22.3 µM | 80.8 µM
O=C1/C(=C/c2ccc([N+](=O)[O-])cc2)COc2ccc(O)c(O)c21 | 1.87 µM | 4.37 µM
CN(C)c1ccc(-c2cc(-c3ccc(Nc4nc(Nc5ccc(Cl)cc5)nc(Nc5ccc(Cl)cc5)n4)cc3)no2)cc1 | 2.87 µM | 11 µM

system: OVCAR-8 ovarian; test: NCI-60 cell line screen, 48 h

Structure (SMILES) | GI50 | TGI
Clc1cccc(Cc2cn3cc(-c4ccccc4)nc3s2)c1Cl | 23.5 µM | > 100 µM
O=C1/C(=C/c2ccc([N+](=O)[O-])cc2)COc2ccc(O)c(O)c21 | 2.29 µM | 9.93 µM
CN(C)c1ccc(-c2cc(-c3ccc(Nc4nc(Nc5ccc(Cl)cc5)nc(Nc5ccc(Cl)cc5)n4)cc3)no2)cc1 | 5.91 µM | 39 µM
NC(N)=N/N=C/c1c(-c2ccc(Cl)c([N+](=O)[O-])c2)nc2sc(Cl)cn12 | – | 4.08 µM

system: UACC-257 melanoma; test: NCI-60 cell line screen, 48 h

Structure (SMILES) | GI50 | TGI
Clc1cccc(Cc2cn3cc(-c4ccccc4)nc3s2)c1Cl | 67.3 µM | > 100 µM
O=C1/C(=C/c2ccc([N+](=O)[O-])cc2)COc2ccc(O)c(O)c21 | 1.89 µM | 4.32 µM
CN(C)c1ccc(-c2cc(-c3ccc(Nc4nc(Nc5ccc(Cl)cc5)nc(Nc5ccc(Cl)cc5)n4)cc3)no2)cc1 | 9.28 µM | 68.3 µM
NC(N)=N/N=C/c1c(-c2ccc(Cl)c([N+](=O)[O-])c2)nc2sc(Cl)cn12 | – | 3.79 µM

system: HS 578T breast; test: NCI-60 cell line screen, 48 h

Structure (SMILES) | GI50 | TGI
Clc1cccc(Cc2cn3cc(-c4ccccc4)nc3s2)c1Cl | 17.4 µM | > 100 µM
O=C1/C(=C/c2ccc([N+](=O)[O-])cc2)COc2ccc(O)c(O)c21 | 1.94 µM | 4.75 µM
CN(C)c1ccc(-c2cc(-c3ccc(Nc4nc(Nc5ccc(Cl)cc5)nc(Nc5ccc(Cl)cc5)n4)cc3)no2)cc1 | 3.97 µM | > 100 µM
NC(N)=N/N=C/c1c(-c2ccc(Cl)c([N+](=O)[O-])c2)nc2sc(Cl)cn12 | – | 5.54 µM
COC(=O)c1ccc2[nH]c(O)c(C(=Nc3ccc(N(C)C(=O)CN4CCN(C)CC4)cc3)c3ccc(C)cc3)c2c1 | 0.105 µM | 0.977 µM

system: EKVX NSCLC; test: NCI-60 cell line screen, 48 h

Structure (SMILES) | GI50 | TGI
O=C1/C(=C/c2ccc([N+](=O)[O-])cc2)COc2ccc(O)c(O)c21 | 1.77 µM | 3.72 µM
CN(C)c1ccc(-c2cc(-c3ccc(Nc4nc(Nc5ccc(Cl)cc5)nc(Nc5ccc(Cl)cc5)n4)cc3)no2)cc1 | 10.5 µM | > 100 µM

system: SF-268 CNS; test: NCI-60 cell line screen, 48 h

Structure (SMILES) | GI50 | TGI
Clc1cccc(Cc2cn3cc(-c4ccccc4)nc3s2)c1Cl | 59.9 µM | > 100 µM
O=C1/C(=C/c2ccc([N+](=O)[O-])cc2)COc2ccc(O)c(O)c21 | 1.51 µM | 3.15 µM
CN(C)c1ccc(-c2cc(-c3ccc(Nc4nc(Nc5ccc(Cl)cc5)nc(Nc5ccc(Cl)cc5)n4)cc3)no2)cc1 | 5.02 µM | 21.6 µM

system: NCI-H23 lung; test: NCI-60 cell line screen, 48 h

Structure (SMILES) | GI50 | TGI
Clc1cccc(Cc2cn3cc(-c4ccccc4)nc3s2)c1Cl | 60.7 µM | > 100 µM
O=C1/C(=C/c2ccc([N+](=O)[O-])cc2)COc2ccc(O)c(O)c21 | 1.77 µM | 3.74 µM
CN(C)c1ccc(-c2cc(-c3ccc(Nc4nc(Nc5ccc(Cl)cc5)nc(Nc5ccc(Cl)cc5)n4)cc3)no2)cc1 | 6.41 µM | 35.8 µM

system: U251 CNS; test: NCI-60 cell line screen, 48 h

Structure (SMILES) | GI50 | TGI
Clc1cccc(Cc2cn3cc(-c4ccccc4)nc3s2)c1Cl | 25.5 µM | > 100 µM
O=C1/C(=C/c2ccc([N+](=O)[O-])cc2)COc2ccc(O)c(O)c21 | 0.785 µM | 3.55 µM
CN(C)c1ccc(-c2cc(-c3ccc(Nc4nc(Nc5ccc(Cl)cc5)nc(Nc5ccc(Cl)cc5)n4)cc3)no2)cc1 | 6.27 µM | 61.8 µM
NC(N)=N/N=C/c1c(-c2ccc(Cl)c([N+](=O)[O-])c2)nc2sc(Cl)cn12 | – | > 100 µM
COC(=O)c1ccc2[nH]c(O)c(C(=Nc3ccc(N(C)C(=O)CN4CCN(C)CC4)cc3)c3ccc(C)cc3)c2c1 | 0.571 µM | 2 µM

system: MOLT-4 leukemia; test: NCI-60 cell line screen, 48 h

Structure (SMILES) | GI50 | TGI
Clc1cccc(Cc2cn3cc(-c4ccccc4)nc3s2)c1Cl | > 100 µM | > 100 µM
O=C1/C(=C/c2ccc([N+](=O)[O-])cc2)COc2ccc(O)c(O)c21 | 1.29 µM | > 100 µM
CN(C)c1ccc(-c2cc(-c3ccc(Nc4nc(Nc5ccc(Cl)cc5)nc(Nc5ccc(Cl)cc5)n4)cc3)no2)cc1 | 1.32 µM | 3.38 µM

system: MDA-MB-231 breast; test: NCI-60 cell line screen, 48 h

Structure (SMILES) | GI50 | TGI
Clc1cccc(Cc2cn3cc(-c4ccccc4)nc3s2)c1Cl | 3.08 µM | > 100 µM
O=C1/C(=C/c2ccc([N+](=O)[O-])cc2)COc2ccc(O)c(O)c21 | 1.33 µM | 2.81 µM
CN(C)c1ccc(-c2cc(-c3ccc(Nc4nc(Nc5ccc(Cl)cc5)nc(Nc5ccc(Cl)cc5)n4)cc3)no2)cc1 | 9.66 µM | 37.7 µM

system: SNB-75 CNS; test: NCI-60 cell line screen, 48 h

Structure (SMILES) | GI50 | TGI
O=C1/C(=C/c2ccc([N+](=O)[O-])cc2)COc2ccc(O)c(O)c21 | 1.55 µM | 3.82 µM
CN(C)c1ccc(-c2cc(-c3ccc(Nc4nc(Nc5ccc(Cl)cc5)nc(Nc5ccc(Cl)cc5)n4)cc3)no2)cc1 | 5.12 µM | 28.1 µM

system: PC-3 prostate; test: NCI-60 cell line screen, 48 h

Structure (SMILES) | GI50 | TGI
Clc1cccc(Cc2cn3cc(-c4ccccc4)nc3s2)c1Cl | 53.7 µM | > 100 µM
O=C1/C(=C/c2ccc([N+](=O)[O-])cc2)COc2ccc(O)c(O)c21 | 1.59 µM | 4.53 µM
